Here are results for 31 molecules from PubChem BioAssay AID179 (DTP/NCI, 2004).

Activity calls are given as the source filed them.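 Rule for the calls: active = compounds giving half or more protection of infected cells from virus-caused growth loss, again on retest; inactive = the rest.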

In this experiment the test system is CEM cells HIV-1 protection, formazan growth assay. Description: NCI AIDS Antiviral Assay. The conditions noted are these: for IC50: measured here: growth of uninfected CEM cells. In a few lines:
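Protection of CEM cells against HIV-1 was scored from cell growth (soluble formazan) across five concentrations, with parallel uninfected cells. Lack of protection may reflect toxicity.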

`O=c1c2c3c(sc2nc2n1N=C(c1ccc(Cl)cc1)CS2)CCCC3`: the EC50 (as a rule, the concentration that produces a half-maximal response) is greater than 200 µM and the half-inhibitory concentration (IC50) (commonly the point on the concentration scale where inhibition reaches its midpoint) was greater than 200 µM.

With `CC1(c2ccccc2)N=C(C(N)=O)c2[nH]cnc2N1` (configuration not stated), the EC50 is greater than 200 µM and the IC50 is greater than 200 µM.

For `CC1(C)C(=O)C(C)(C)C1=S`, the EC50 is greater than 219 µM and the IC50 is greater than 219 µM. For `OCC(CCc1ccccc1I)C1=CCC2(CC1)OCCO2` (configuration not stated), the EC50 is greater than 200 µM and the 50% inhibitory concentration (IC50) was 34.7 µM. Consider `O=C1NC(=O)c2ccccc2/C1=C/c1ccc2c(c1)OCO2`, for which the EC50 was greater than 200 µM and the IC50 stood at 2.09 µM.

For `O=c1[nH]c(Nc2ccc(Br)c(C(F)(F)F)c2)nc2nc[nH]c12`, the EC50 is greater than 151 µM and the IC50 is 28.2 µM. On the same counts, the results for `C=CCN(CC=C)CC(C(C)=O)C(c1ccccc1)c1c(O)c2ccccc2oc1=O` (configuration not stated) are greater than 1.15 µM and greater than 1.15 µM.

In the case of `CC1(C)N=C(N)N=C(N)N1c1ccc(Cl)c(Cl)c1`, the EC50 was greater than 0.01 µM and the 50% inhibitory concentration (IC50) was 0.00427 µM. On the same counts, the results for `Cc1ccc(Cl)c(-c2nc3cc(Cl)c(Cl)cc3[nH]2)c1` are greater than 60.3 µM and greater than 60.3 µM. In the case of `NC(CSSCC(N)Cc1ccccc1)Cc1ccccc1` (configuration not stated), the EC50 is greater than 617 µM and the IC50 amounted to 20.4 µM. On the same counts, the results for `c1ccc(Nc2nnc(-c3ccccc3Nc3ccccc3-c3nnc(Nc4ccccc4)s3)s2)cc1` are greater than 200 µM and 105 µM. In the case of `COc1cc2c(c(OC)c1OC)CCC1C(=O)NN=C21` (configuration not stated), the EC50 is greater than 912 µM and the IC50 turned out to be 102 µM. For the molecule `CC(=O)OCc1c2ccccc2c(C)c2c1cc(F)c1ccccc12`, the outcome was inactive. Consider `COc1nc(NC2OC(CO)C(O)C(O)C2O)cc(=O)[nH]1` (configuration not stated), for which the outcome was inactive.

As to `Nc1ncnc2c1sc1nc3ccccc3n12`, the EC50 was greater than 200 µM and the IC50 is greater than 200 µM. Take `Cc1ccccc1C=NC12CC3CC(CC(C3)C1)C2`: the EC50 was greater than 53.7 µM and the IC50 is greater than 53.7 µM.

With `CCc1ccc(Cc2ccc(CC)c(NC(=O)C(=O)Cc3nc4ccccc4nc3C)c2CC)c(CC)c1NC(=O)C(=O)Cc1nc2ccccc2nc1C`, the EC50 was greater than 13.5 µM and the IC50 was greater than 13.5 µM. Regarding `CN(C)/N=N/c1nc2c(c(=O)n(C)c(=O)n2C)n1CC1CO1` (configuration not stated), the EC50 was greater than 200 µM and the IC50 came out at 12 µM. In the case of `CC(C)=CC(=O)Cc1nc2cc(C)c(C)cc2[nH]c1=O`, the result was inactive. In the case of `CCCCCCCCCCCCCC(=O)OCC1OC(n2cc(C)c(=O)[nH]c2=O)CC1N=[N+]=[N-]` (configuration not stated), the EC50 is 0.00372 µM and the IC50 came to 102 µM. For the molecule `CCOC(=O)/C(=C\c1ccc(-c2ccccc2)cc1)C(C)=O`, the EC50 was greater than 45.7 µM and the IC50 was greater than 45.7 µM. Turning to `CNC(=O)CCNC(=O)CCC(=O)N(C)C`, the EC50 was greater than 200 µM and the IC50 is greater than 200 µM. With `O=C(O)Cc1cc(=O)oc2c1ccc1ccccc12`, the EC50 was greater than 200 µM and the IC50 worked out at 135 µM.

In the case of `CC(=O)NC1=C(C)C(=O)c2c(nc3n2CCC3OC(=O)CCl)C1=O` (configuration not stated), the EC50 is greater than 200 µM and the 50% inhibitory concentration (IC50) amounted to 1.48 µM.

On to `N#CC(C#N)=C1CCCS(=O)(=O)c2ccccc21`, for which the EC50 is greater than 200 µM and the IC50 was greater than 200 µM. Turning to `Cc1cccc(/C=C(\C#N)C(=O)c2ccccc2)c1`, the EC50 was greater than 363 µM and the IC50 stood at 178 µM. On the same counts, the results for `CC(=O)OC1C=CS(=O)(=O)C1` (configuration not stated) are greater than 200 µM and 15.8 µM. On the same counts, the results for `Cc1c(C)c2cc3c(=O)ccoc3c(C)c2oc1=O` are greater than 20.4 µM and greater than 20.4 µM. For `CCN(CC)CC(=O)Nc1ccc(Cc2ccc(NC(=O)CN(CC)CC)cc2)cc1`, the EC50 was greater than 200 µM and the IC50 was found to be 16.2 µM. As to `O=S(=O)(C=C=CCO)c1ccccc1`, the outcome was inactive. For `N#C/C(=C\c1ccc(F)cc1)c1nc(-c2cc3ccccc3oc2=O)cs1`, the outcome was inactive.
